The values that follow come from patent US20180185510A1, “ANTIBODY DRUG CONJUGATES OF KINESIN SPINDEL PROTEIN (KSP) INHIBITORS WITH ANTI-B7H3-ANTIBODIES” (BAYER PHARMA AKTIENGESELLSCHAFT, priority 2015, published 2018).

One data set has as its system KPL4. Put plainly: MTT assay, cytotoxicity of metabolites, KPL4. The format is cell-based. As to conditions: KPL4; 96 h incubation. The procedure:
(§1) The cells were cultivated according to the standard method using the growth media listed under C-1. The test is carried out by detaching the cells with a solution of Accutase in PBS (Biochrom AG #L2143), pelleting, resuspending in culture medium, counting and sowing into a 96-well culture plate with white bottom (Costar #3610) (NCI H292: 2500 cells/well in a total volume of 100 μl). The cells were then incubated in an incubator at 37° C. and 5% carbon dioxide. After 48 h, the medium was replaced. The metabolites in 10 μl of culture medium in concentrations from 10^−5M to 10^−13M were then pipetted to the cells (in triplicate), and the assay was then incubated in an incubator at 37° C. and 5% carbon dioxide. […] To this end, the MTT reagent was incubated with the cells for 4 h, followed by lysis of the cells overnight by addition of the detergent. The dye formed was detected at 570 nm (Infinite M1000 pro, Tecan). The measured data were used to calculate the IC50 of the growth inhibition using the DRC (dose response curve). The proliferation of cells which were not treated with test substance but were otherwise identically treated was defined as the 100% figure.

For data set [1], the system named is NCI-H292: human mucoepidermoid lung carcinoma cells. Put plainly: MTT assay, cytotoxicity of metabolites, NCI-H292. In kind it is cell-based. As to conditions: NCI-H292, 96 h incubation. As to the method: NCI-H292: human mucoepidermoid lung carcinoma cells, ATCC-CRL-1848, standard medium: RPMI 1640 (Biochrom; #FG1215, stab. glutamine)+10% FCS (Biochrom; #S0415).
as §1
Background: Formazan colour is commonly taken as a measure of viable cells.

For another data set, the system named is Caco-2 cells. Put plainly: Flux assay for cell permeability using Caco-2 cells. As to conditions: Caco-2, basal to apical, 2 hours. (In general: Passage across Caco-2 layers is used to estimate intestinal permeability.)
The subject of data set [2] is MCF-7: human breast cancer cells. Put plainly: CTG assay, cytotoxic effects of the anti-B7H3 ADCs, MCF-7. As to conditions: MCF7, growth inhibition vs day 0, 72 h incubation, B7H3-positive cells. The format is cell-based. As to the method: (§2) The analysis of the cytotoxic effects of the anti-B7H3 ADCs was carried out with various cell lines:
(§3) The cells were cultivated by the standard method as stated by the American Tissue Culture Collection (ATCC) for the cell lines in question.
(§4) The cells were cultivated according to the standard method using the growth media listed under C-1. […] The cells were then incubated in an incubator at 37° C. and 5% carbon dioxide. In a parallel plate, the cell vitality was determined at the start of the drug treatment (day 0) using the Cell Titer Glow (CTG) Luminescent Cell Viability Assay (Promega #G7573 and #G7571). To this end, 100 μl of the substrate were added per cell batch, the plates were then covered with aluminium foil, shaken on the plate shaker at 180 rpm for 2 minutes, allowed to stand on the laboratory bench for 8 minutes and then measured using a luminometer (Victor X2, Perkin Elmer). The substrate detects the ATP content in the living cells, generating a luminescence signal the height of which is directly proportional to the vitality of the cells. […] From the measured data, the IC50 of the growth inhibition in comparison to day 0 was calculated using the DRC (dose response curve) analysis spreadsheets with a 4-parameter fit. […]

Data set [3] concerns A498: human renal carcinoma cells. Put plainly: CTG assay, cytotoxic effects of the anti-B7H3 ADCs, A498. The format is cell-based. The settings on record: growth inhibition vs day 0, 72 h incubation, B7H3-positive cells. As to the method:
as §2, §3, §4

The subject of data set [4] is Raji: human Burkitt's lymphoma cells. Put plainly: CTG assay, cytotoxic effects of the anti-B7H3 ADCs, Raji. In kind it is cell-based. The settings on record: growth inhibition vs day 0, 72 h incubation, B7H3-negative cells. The procedure:
as §2, §3, §4

For data set [5], the system named is Caki-2: human renal carcinoma cells. Put plainly: CTG assay, cytotoxic effects of the anti-B7H3 ADCs, Caki-2. The format is cell-based. As to conditions: growth inhibition vs day 0, 72 h incubation, B7H3-positive cells.
Text: Caki-2: human renal carcinoma cells, ATCC-HTB-27, standard medium: DMEM/Ham's F12 (#FG4815, Biochrom AG)+10% FCS (#F2442, Sigma), B7H3-positive.

Regarding `CC(C)(C)[C@H](c1cc(-c2cc(F)ccc2F)cn1Cc1ccccc1)N(CC[C@H](N)C(=O)NC(CCC(=O)O)C(=O)O)C(=O)CO.O=C(O)C(F)(F)F` (stereo in doubt) [Example M25, N-{(2S)-2-Amino-4-[{(1R)-1-[1-benzyl-4-(2,5-difluorophenyl)-1H-pyrrol-2-yl]-2,2-dimethylpropyl}(glycoloyl)amino]butanoyl}-L-glutamic acid-trifluoroacetic acid (1:1)], the IC50 (in the data set with KPL4; in data set [1]) was 500 nM each time. Besides, the “Papp (B-A)” value in the data set on Caco-2 cells came out at 0.81 ×10⁻⁶ cm/s.

On to `CC(C)(C)[C@H](c1cc(-c2cc(F)ccc2F)cn1Cc1ccccc1)N(CCCN)C(=O)CO` [Example M09, N-(3-Aminopropyl)-N-{(1R)-1-[1-benzyl-4-(2,5-difluorophenyl)-1H-pyrrol-2-yl]-2,2-dimethylpropyl}-2-hydroxyacetamide], for which the IC50 in data set [2] amounted to 0.015 nM; in data set [3], 0.0165 nM; in data set [4], 0.015 nM; in data set [5], 0.0975 nM.

As a reminder, the IC50 is the concentration that gives 50% inhibition.
